Source: patent US20110124888A1, “STYRYLBENZOFURAN DERIVATIVES AS INHIBITORS FOR BETA-AMYLOID FIBRIL FORMATION AND PREPARATION METHOD THEREOF” (Korea Institute of Science and Technology, priority 2008, published 2011)

Columns and labels:
[1] = target: T1, beta-amyloid 42 (Aβ42) (Homo sapiens, UniProt P05067); assay: Inhibitory effect on the formation of beta-amyloid fibrils in vitro (ThT fluorescence assay); format: biochemical; conditions: for IC50: In vitro ThT analysis (Aβ42: 25 μM), experiment of Table 1; for % inhibition against the beta-amyloid 42 formation compared with curcumin: Tables 1 to 6, relative to curcumin
T1 construct: Beta-amyloid 42 (Aβ42) was dissolved in dimethylsulfoxide (DMSO)
T1 sequence (P05067 672-713 limits assumed): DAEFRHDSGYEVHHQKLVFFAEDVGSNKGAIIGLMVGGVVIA
Method: In order to investigate the inhibitory effect on the formation of beta-amyloid fibrils, the inventive compounds were examined as follows:
Beta-amyloid 42 (Aβ42) was dissolved in dimethylsulfoxide (DMSO) to form a […] Aβ42 stock solution. In addition, ThT (thioflavin T) was dissolved in distilled water to a concentration of 1 mM and subsequently diluted with 50 mM glycin buffer (pH 8.5) to yield a 5 μM ThT stock solution.
45 μL of PBS (phosphate buffer saline, pH 7.4) was added to each of a 96 well fluorescence microplate (white, F-bottom). 5 μL of the 250 μM Aβ42 stock solution was added to each well. The final concentration of each compound obtained in Examples was in a range of 10 to 0.001 μM by adding 2 μL of a solution, which is prepared by dissolving the subject compounds obtained in Examples in DMSO, to each well. At this time, the final concentration of Aβ42 in each well was 25 μM. The plate was then incubated at room temperature for 1 hr, and 150 μL of the 5 μM ThT stock solution was added to each well.
The fluorescence intensity of each well was determined with the multi label fluorescence counter (LS-55 Luminescence spectrometer, Perkin Elmer) at an excitation wavelength of 450 nm (excitation slit width: 10 nm) and an emission wavelength of 482 nm (emission slit width: 10 nm), while adjusting counting time to 1 second. The control group was prepared by adding PBS solution, Aβ42 and DMSO, without adding the inventive compound. % Inhibition on the formation of beta-amyloid fibrils was calculated in accordance with the following equation and IC5O was calculated by using GraphPad Prism version 4.03 Program.
% Inhibition=[1−(C−D)/(A−B)]×100 Equation 1%
A (control group): fluorescence intensity in a group treated with PBS solution, Aβ42, and DMSO
B (blank): fluorescence intensity in a group treated with PBS solution and DMSO
C (experimental group): fluorescence intensity in a group treated with PBS solution, Aβ42, DMSO, and the inventive compound
D (compensation value to the experimental group): fluorescence intensity in a group treated with PBS solution, DMSO, and the inventive compound

[2] = tested on: transgenic double tg mice (APPswe, PSEN1 dE9); assay: In vivo fear conditioning test in transgenic mice; conditions: 5 to 12 months of age, based on the freezing (%) of Tg vehicle group
Method: The tails of 3-week old mice born from Male B6C3-Tg (APPswe, PSEN1 dE9, Jackson Laboratory Co., Maine, A) and female B6C3F1 (central Lab. Animal Inc., Korea) were cut in lengths of about 0.5 cm (tail biopsy). The genomic DNAs were extracted from the tail samples and subjected to a genotype analysis to screen transgenic double tg mice.
From 5 months to 12 months after the birth, the mice were administered orally with the compound of Example 9, in an amount of 30 mg/kg or 100 mg/kg every day. As a comparative compound, tramiprosate (Aisen, P. S. et. al., Curr. Alzheimer Res. 2007, 4, 473) was used, which binds to beta-amyloid protein to inhibit the deposition and cytotoxicity to the protein. The compounds were administrated.
3) Fear Conditioning Test
At the First day of training, the mice were placed in a conditioning box and adjusted for 2 min. The fear conditioning was performed with a conditional stimulus (CS) of 75 dB for 20 sec, together with an electrical stimulus (unconditional stimulus (US)) of 0.5 mA for final 2 sec in the conditional stimulus period. After 1 min, the animals were transferred to a cage. After 24 hrs, the retention test was performed. The animals were placed in the same conditioning box as used above and observed for 5 min. The freezing response was measured without CS and US. The freezing response is defined in the state of the animals keeping still except for breathing.

[3] = tested on: congo red-positive beta-amyloid plagues; assay: Immunohistochemistry: congo red-positive beta-amyloid plaque count in hippocampus and cortex of transgenic mice; format: in vivo; conditions: vs Tg group
Method: The transgenic mice were screened and drug was administered thereto as described in 1) and 2) of Experimental Example 4. The brain was separated from the transgenic mouse and fixed in 10% neutral formalin solution. A region of the brain including the hippocampus and the cortex were subjected to removal, washing, dehydration and paraffin infiltration to obtain paraffin block including the brain tissue. The paraffin block was subjected to thin section in thickness of 8 μm to obtain the sections of all regions of hippocampus. Among them, 10 sections were elected at regular intervals. They were deparaffinized, hydrated, immersed in Mayer's hematoxylin for 1 min and rinsed with tap water. The rinsed tissue was reacted in an alkaline sodium chloride solution for 20 min, after then was reacted in an alkaline congo red solution for 20 min. The resulting tissue was washed with 100% ethyl alcohol, cleared with xylene and mounted using a synthetic mounting medium. In the hippocampus and cortex regions of the tissue preparations strained with congo red, congo red-positive beta-amyloid plagues were counted.

[4] = target: beta-amyloid 42 (Homo sapiens, UniProt P05067); assay: Biochemical test: content of beta-amyloid 42 in hippocampus tissue of transgenic mice; format: in vivo; conditions: hippocampus tissue, based on the content of beta amyloid 42 in the Tg group
Chain of beta-amyloid 42 (P05067 672-713 limits assumed): as above

| SMILES | IC50 [1] | % inhibition against the beta-amyloid 42 formation compared with curcumin [1] | melting point | Increase rate (fold) of freezing ([2]; 30 mg/kg orally every day) | Increase rate (fold) of freezing ([2]; 100 mg/kg orally every day) | Reduction rate (%) of beta-amyloid plaques, cortex ([3]; 30 mg/kg) | Reduction rate (%) of beta-amyloid plaques, hippocampus ([3]; 30 mg/kg) | Total reduction rate (%) of beta-amyloid plaques ([3]; 30 mg/kg) | Reduction rate (%) of beta-amyloid plaques, cortex ([3]; 100 mg/kg) | Reduction rate (%) of beta-amyloid plaques, hippocampus ([3]; 100 mg/kg) | Total reduction rate (%) of beta-amyloid plaques ([3]; 100 mg/kg) | Reduction rate (%) of beta amyloid 42 content ([4]; 30 mg/kg) | Reduction rate (%) of beta amyloid 42 content ([4]; 100 mg/kg) |
| --- | --- | --- | --- | --- | --- | --- | --- | --- | --- | --- | --- | --- | --- |
| Cc1ccc2oc(C=Cc3ccc(N(C)C)cc3)cc2c1 [Compound 4, 5-methyl-2-(4-dimethylaminostyryl)benzofuran] | 128 nM | superior % inhibition | 188 to 189 °C |  |  |  |  |  |  |  |  |  |  |
| CN(C)c1ccc(C=Cc2cc3cc(O)ccc3o2)cc1 [Compound 3, 5-Hydroxy-2-(4-dimethylaminostyryl)benzofuran] | 163 nM | superior % inhibition | 177 to 178 °C |  |  |  |  |  |  |  |  |  |  |
| NCCCS(=O)(=O)O [Tramiprosate, tramiprosate, reference compound] |  |  |  | 2.3 fold | 1.8 fold | 32% | 7% | 29% | 12% | 7% | 11% | 8% | 16% |
| COc1ccc2oc(C=Cc3ccc(N(C)C)c(OC)c3)cc2c1 [Compound 22, 5-methoxy-2-(3-methoxy-4-dimethylaminostyryl)benzofuran] | 156 nM | superior % inhibition | 226.5 to 227.5 °C |  |  |  |  |  |  |  |  |  |  |
